Data on twelve compounds can be found in ChEMBL document CHEMBL4011590, “Structure-activity relationship studies on 3,5-dinitrophenyl tetrazoles as antitubercular agents” (Eur J Med Chem, 2017).

Converted amounts (≈) assume the structure as drawn.

Holding throughout (assay type): functional
Assay [1] relates to Mycobacterium tuberculosis. As to the kind of experiment: Antimycobacterial activity against clinical isolates of multidrug resistant/extensively drug resistant Mycobacterium tuberculosis Praha 1 after 14 days by micromethod. The note with it: Praha 1, 336 h.
The test system of assay [2] is Mycobacterium tuberculosis. Description: Antimycobacterial activity against clinical isolates of multidrug resistant/extensively drug resistant Mycobacterium tuberculosis Praha 1 after 21 days by micromethod. The note with it: Praha 1, 504 h.
Assay [3] concerns Mycobacterium tuberculosis. As to the kind of experiment: Antimycobacterial activity against clinical isolates of multidrug resistant/extensively drug resistant Mycobacterium tuberculosis Praha 4 after 14 days by micromethod. The note with it: Praha 4, 336 h.
Assay [4] concerns Mycobacterium tuberculosis. As to the kind of experiment: Antimycobacterial activity against clinical isolates of multidrug resistant/extensively drug resistant Mycobacterium tuberculosis Praha 4 after 21 days by micromethod. The note with it: Praha 4, 504 h.
The subject of assay [5] is Mycobacterium tuberculosis. As to the kind of experiment: Antimycobacterial activity against clinical isolates of multidrug resistant/extensively drug resistant Mycobacterium tuberculosis Praha 131 after 14 days by micromethod. The note with it: Praha 131, 336 h.
For assay [6], the system named is Mycobacterium tuberculosis. As to the kind of experiment: Antimycobacterial activity against clinical isolates of multidrug resistant/extensively drug resistant Mycobacterium tuberculosis Praha 131 after 21 days by micromethod. As to conditions: Praha 131, 504 h.
For assay [7], the system named is Mycobacterium tuberculosis. Description: Antimycobacterial activity against clinical isolates of multidrug resistant/extensively drug resistant Mycobacterium tuberculosis 9449/2007 after 14 days by micromethod. The note with it: 9449/2007, 336 h.
The subject of assay [8] is Mycobacterium tuberculosis. As to the kind of experiment: Antimycobacterial activity against clinical isolates of multidrug resistant/extensively drug resistant Mycobacterium tuberculosis 9449/2007 after 21 days by micromethod. As to conditions: 9449/2007, 504 h.
For assay [9], the system named is Mycobacterium tuberculosis. Description: Antimycobacterial activity against clinical isolates of multidrug resistant/extensively drug resistant Mycobacterium tuberculosis 234/2005 after 14 days by micromethod. As to conditions: 234/2005, 336 h.
The subject of assay [10] is Mycobacterium tuberculosis. As to the kind of experiment: Antimycobacterial activity against clinical isolates of multidrug resistant/extensively drug resistant Mycobacterium tuberculosis 234/2005 after 21 days by micromethod. The note with it: 234/2005, 504 h.
The test system of assay [11] is Mycobacterium tuberculosis. As to the kind of experiment: Antimycobacterial activity against clinical isolates of multidrug resistant/extensively drug resistant Mycobacterium tuberculosis 7357/1998 after 14 days by micromethod. The note with it: 7357/1998, 336 h.
Assay [12] concerns Mycobacterium tuberculosis. As to the kind of experiment: Antimycobacterial activity against clinical isolates of multidrug resistant/extensively drug resistant Mycobacterium tuberculosis 7357/1998 after 21 days by micromethod. As to conditions: 7357/1998, 504 h.
Assay [13] deals with Mycobacterium tuberculosis. As to the kind of experiment: Antimycobacterial activity against clinical isolates of multidrug resistant/extensively drug resistant Mycobacterium tuberculosis 8666/2010 after 14 days by micromethod. As to conditions: 8666/2010, 336 h.
For assay [14], the system named is Mycobacterium tuberculosis. As to the kind of experiment: Antimycobacterial activity against clinical isolates of multidrug resistant/extensively drug resistant Mycobacterium tuberculosis 8666/2010 after 21 days by micromethod. The note with it: 8666/2010, 504 h.

As usually defined, the MIC is the lowest concentration that inhibits growth of the organism. Turning to `O=[N+]([O-])c1cc(-c2nnn(Cc3ccccc3)n2)cc([N+](=O)[O-])c1`, the MIC in [1], in [2], in [3], in assay [4], in assay [5] and in [6] was 1 µM (≈ 0.326 µg/mL) each time. Also, the MIC in [7], in assay [8], in [9], in assay [10], in assay [11] and in assay [12] was 1 µM (≈ 0.326 µg/mL) each time.
For `O=[N+]([O-])c1cc(-c2nnn(Cc3cccc(Br)c3)n2)cc([N+](=O)[O-])c1`, the MIC in [1] stood at 0.5 µM (≈ 0.203 µg/mL); in [2] it was 0.5 µM (≈ 0.203 µg/mL); in assay [3], 0.5 µM (≈ 0.203 µg/mL); in assay [4] it was 1 µM (≈ 0.405 µg/mL); in assay [5], 0.5 µM (≈ 0.203 µg/mL); in [6], 1 µM (≈ 0.405 µg/mL). The MIC in assay [7] was 0.25 µM (≈ 0.101 µg/mL); in assay [8], 0.5 µM (≈ 0.203 µg/mL); in assay [9] it was 0.25 µM (≈ 0.101 µg/mL); in assay [10], 0.5 µM (≈ 0.203 µg/mL); in assay [11], 0.5 µM (≈ 0.203 µg/mL); in assay [12], 0.5 µM (≈ 0.203 µg/mL). Also, the figures for the MIC in [13] and in assay [14] were 0.25 µM (≈ 0.101 µg/mL) and 0.5 µM (≈ 0.203 µg/mL), respectively.
With `O=[N+]([O-])c1cc(-c2nnn(CSc3nnnn3-c3ccc(Cl)cc3)n2)cc([N+](=O)[O-])c1`, the MIC in assay [1] stood at 0.03 µM (≈ 0.0138 µg/mL); in assay [2] it was 0.06 µM (≈ 0.0276 µg/mL); in assay [3], 0.03 µM (≈ 0.0138 µg/mL); in [4], 0.03 µM (≈ 0.0138 µg/mL); in [5], 0.03 µM (≈ 0.0138 µg/mL); in assay [6], 0.03 µM (≈ 0.0138 µg/mL). For the same compound, the MIC came to 0.03 µM (≈ 0.0138 µg/mL) in assay [7]; 0.03 µM (≈ 0.0138 µg/mL) in assay [8]; 0.03 µM (≈ 0.0138 µg/mL) in assay [9]; 0.06 µM (≈ 0.0276 µg/mL) in assay [10]; 0.03 µM (≈ 0.0138 µg/mL) in assay [11]; 0.03 µM (≈ 0.0138 µg/mL) in assay [12].
On to `O=[N+]([O-])c1cc(-c2nnn(CSc3nnnn3-c3ccc(Br)cc3)n2)cc([N+](=O)[O-])c1`, for which the MIC in assay [1], in [2], in [3], in [4], in assay [5] and in assay [6] was 0.03 µM (≈ 0.0152 µg/mL) each time. In addition, the MIC in assay [7], in assay [8], in [9], in assay [10], in [11] and in assay [12] was 0.03 µM (≈ 0.0152 µg/mL) in each case.
Take `O=[N+]([O-])c1cc(-c2nnn(CSc3nnnn3-c3ccc(Cl)c(Cl)c3)n2)cc([N+](=O)[O-])c1`: the minimal inhibitory concentration (MIC) in assay [1], in assay [2], in [3], in assay [4], in assay [5] and in assay [6] was 0.03 µM (≈ 0.0149 µg/mL) throughout. Moreover, the MIC in [7], in [8], in [9], in assay [10], in assay [11] and in assay [12] was 0.03 µM (≈ 0.0149 µg/mL) each time.
`O=[N+]([O-])c1cc(-c2nnn(Cc3cccc(F)c3)n2)cc([N+](=O)[O-])c1`: the MIC in [1], in assay [2], in assay [3], in assay [4], in [5] and in [6] was 1 µM (≈ 0.344 µg/mL) throughout. Also, the MIC in assay [7], in [8], in assay [9], in assay [10], in assay [11] and in assay [12] was 1 µM (≈ 0.344 µg/mL) each time. For the same compound, the MIC in [13] and in assay [14] was 1 µM (≈ 0.344 µg/mL) in each case.
As for `O=[N+]([O-])c1cc(-c2nnn(CCCSc3nnnn3-c3ccc(Br)cc3)n2)cc([N+](=O)[O-])c1`, the MIC in assay [1], in assay [2], in assay [3], in assay [4], in assay [5] and in assay [6] was 0.25 µM (≈ 0.133 µg/mL) each time. The minimum inhibitory concentration (MIC) in assay [7], in assay [8], in assay [9], in assay [10], in assay [11] and in [12] was 0.25 µM (≈ 0.133 µg/mL) throughout.
`Cc1ccc(Cn2nnc(-c3cc([N+](=O)[O-])cc([N+](=O)[O-])c3)n2)cc1`: the MIC in assay [1] came to 0.12 µM (≈ 0.0408 µg/mL); in [2], 0.25 µM (≈ 0.0851 µg/mL); in assay [3], 0.12 µM (≈ 0.0408 µg/mL); in [4], 0.12 µM (≈ 0.0408 µg/mL); in assay [5], 0.12 µM (≈ 0.0408 µg/mL); in assay [6] it was 0.12 µM (≈ 0.0408 µg/mL). Moreover, the MIC in assay [7], in assay [8], in assay [9], in [10], in assay [11] and in assay [12] was 0.12 µM (≈ 0.0408 µg/mL) each time. The MIC in [13] and in assay [14] was 0.12 µM (≈ 0.0408 µg/mL) in each case.
With `COc1cccc(-n2nnnc2SCn2nnc(-c3cc([N+](=O)[O-])cc([N+](=O)[O-])c3)n2)c1`, the MIC in [1], in assay [2], in [3], in assay [4], in assay [5] and in assay [6] was 0.03 µM (≈ 0.0137 µg/mL) throughout. Further, the MIC in assay [7] was 0.03 µM (≈ 0.0137 µg/mL); in [8], 0.06 µM (≈ 0.0274 µg/mL); in [9] it was 0.03 µM (≈ 0.0137 µg/mL); in [10], 0.03 µM (≈ 0.0137 µg/mL); in assay [11], 0.03 µM (≈ 0.0137 µg/mL); in assay [12] it was 0.03 µM (≈ 0.0137 µg/mL).
As for `O=[N+]([O-])c1cc(-c2nnn(Cc3ccc(F)cc3)n2)cc([N+](=O)[O-])c1`, the MIC came to 1 µM (≈ 0.344 µg/mL) in [1]; 1 µM (≈ 0.344 µg/mL) in assay [2]; 0.5 µM (≈ 0.172 µg/mL) in [3]; 1 µM (≈ 0.344 µg/mL) in [4]; 0.5 µM (≈ 0.172 µg/mL) in assay [5]; 1 µM (≈ 0.344 µg/mL) in assay [6]. Besides, the MIC in assay [7] was 0.25 µM (≈ 0.0861 µg/mL); in assay [8], 0.5 µM (≈ 0.172 µg/mL); in assay [9], 0.5 µM (≈ 0.172 µg/mL); in [10], 1 µM (≈ 0.344 µg/mL); in [11], 0.5 µM (≈ 0.172 µg/mL); in [12] it was 0.5 µM (≈ 0.172 µg/mL). Moreover, the MIC in assay [13] and in assay [14] was 0.5 µM (≈ 0.172 µg/mL) in each case.
Take `O=[N+]([O-])c1cc(-c2nnn(CCCCSc3nnnn3-c3ccc(Br)cc3)n2)cc([N+](=O)[O-])c1`: the MIC in assay [1], in assay [2], in assay [3], in assay [4], in assay [5] and in [6] was 0.25 µM (≈ 0.137 µg/mL) each time. Further, the MIC in [7] was found to be 0.25 µM (≈ 0.137 µg/mL); in assay [8], 0.5 µM (≈ 0.274 µg/mL); in assay [9], 0.25 µM (≈ 0.137 µg/mL); in assay [10] it was 0.25 µM (≈ 0.137 µg/mL); in [11], 0.25 µM (≈ 0.137 µg/mL); in assay [12] it was 0.25 µM (≈ 0.137 µg/mL).
For the compound `COc1ccc(Cn2nnc(-c3cc([N+](=O)[O-])cc([N+](=O)[O-])c3)n2)cc1`, the MIC in assay [1], in assay [2], in assay [3], in [4], in assay [5] and in [6] was 0.03 µM (≈ 0.0107 µg/mL) throughout. Besides, the MIC in assay [7] was 0.03 µM (≈ 0.0107 µg/mL); in assay [8], 0.03 µM (≈ 0.0107 µg/mL); in assay [9] it was 0.03 µM (≈ 0.0107 µg/mL); in assay [10] it was 0.06 µM (≈ 0.0214 µg/mL); in assay [11], 0.03 µM (≈ 0.0107 µg/mL); in [12], 0.03 µM (≈ 0.0107 µg/mL). The MIC in assay [13] and in [14] was 0.03 µM (≈ 0.0107 µg/mL) throughout.
